In patent publication US8049037B2, “Sphingosine-1-phosphate (S1P) receptor antagonists and methods for use thereof” (Allergan, Inc., priority 2008, dated 2011):

Molecular target: T1, human S1P3 receptor (Homo sapiens, UniProt Q99500)
T1 construct: expressed in transfected cells
Test: S1P3 FLIPR Ca2+ assay in T24 cells stably expressing the human S1P3 receptor
Assay type: cell-based
Conditions: for IC50: tested over 0.61 nM to 10,000 nM, read-out: IC50, activity potency human S1P3 receptor from FLIPR
Description: The compounds of the invention were tested for S1P3 activity using the Flipr assay. The compounds may be assessed for ability to activate or block activation of the human S1P3 receptor in T24 cells stably expressing the human S1P3 receptor. Ten thousand cells/well are plated into 384-well poly-D-lysine coated plates one day prior to use. The growth media for the S1P3 receptor expressing cell line McCoy's 5A medium supplemented with 10% charcoal-treated fetal bovine serum (FBS), 1% antibiotic-antimycotic and 400 μg/mL genetecin. On the day of the experiment, the cells are washed twice Hank's Balanced Salt Solution supplemented with 20 mM HEPES (HBSS/Hepes buffer). The cells are then dye loaded with 2 μM Fluo-4 diluted in the HBSS/Hepes buffer with 1.25 mM Probenecid and incubated at 37° C. for 40 minutes. Extracellular dye is removed by washing the cell plates four times prior to placing the plates in the FLIPR (Fluorometric Imaging Plate Reader, Molecular Devices). Ligands are diluted in HBSS/Hepes buffer and prepared in 384-well microplates. The positive control, Sphingosine-1-phosphate (SIP), is diluted in HBSS/Hepes buffer with 4 mg/mL fatty acid free bovine serum albumin. The FLIPR transfers 12.5 μL from the ligand microplate to the cell plate and takes fluorescent measurements for 75 seconds, taking readings every second, and then for 2.5 minutes, taking readings every 10 seconds. Drugs are tested over the concentration range of 0.61 nM to 10,000 nM. Data for Ca^+2 responses are obtained in arbitrary fluorescence units and not translated into Ca^+2 concentrations. IC50 values are determined through a […] analysis using the Levenburg Marquardt algorithm.

T1 sequence (Q99500 whole entry): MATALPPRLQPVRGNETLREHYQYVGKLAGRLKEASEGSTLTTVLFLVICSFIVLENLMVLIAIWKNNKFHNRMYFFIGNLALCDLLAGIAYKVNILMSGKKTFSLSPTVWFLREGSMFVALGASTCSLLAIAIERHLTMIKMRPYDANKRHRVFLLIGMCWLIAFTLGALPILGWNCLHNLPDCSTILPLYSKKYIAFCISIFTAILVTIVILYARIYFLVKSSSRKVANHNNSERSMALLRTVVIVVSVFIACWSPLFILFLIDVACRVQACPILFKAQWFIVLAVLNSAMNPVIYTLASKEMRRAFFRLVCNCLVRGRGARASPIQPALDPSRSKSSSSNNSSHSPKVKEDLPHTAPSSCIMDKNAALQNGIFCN

Structure (SMILES) | % Antagonism, human S1P3 receptor from FLIPR | IC50
O=C(NC(Nc1ccc(Cl)cc1)C(F)(F)F)c1ccc(Br)cc1 (stereo not drawn) [4-bromo-N-[1-(4-chlorophenylamino)-2,2,2-trifluoro-ethyl]-benzamide] | 100% | 2990 nM
O=C(NC(Nc1ccc(Cl)cc1)C(Cl)(Cl)Cl)c1ccc(Br)cc1 (stereo not drawn) [4-bromo-N-(2,2,2-trichloro-1-(4-chlorophenylamino)ethyl)benzamide] | 96% | 28 nM
O=C(NC(Nc1ccc(Cl)cc1)C(Cl)(Cl)Cl)c1ccc(Br)cc1 (single isomer, unassigned; (-)) [(−)-4-bromo-N-(2,2,2-trichloro-1-(4-chlorophenylamino)ethyl)benzamide] | 96% | 16 nM
COc1ccc(C(=O)NC(Nc2ccc(Cl)cc2)C(Cl)(Cl)Cl)cc1 (stereo not drawn) | 96% | 278 nM
O=C(NC(Nc1ccc(Br)cc1)C(Cl)(Cl)Cl)c1ccco1 (stereo not drawn) | 98% | 365 nM
O=C(NC(Nc1ccc(Cl)c(F)c1)C(Cl)(Cl)Cl)c1ccco1 (stereo not drawn) [Furan-2-carboxylic acid (2,2,2-trichloro-1-(4-chloro-3-fluoro-phenylamino)-ethyl)-amide] | 98% | 291 nM
O=C(NC(Nc1ccc(Cl)cc1)C(Cl)(Cl)Cl)c1cccc(Cl)c1 (stereo not drawn) | 94% | 1520 nM
O=C(NC(Nc1ccc(Cl)cc1)C(F)(F)Cl)c1ccc(Br)cn1 (stereo not drawn) [5-Bromo-N-(2-chloro-1-(4-chlorophenylamino)-2,2-difluoroethyl)picolinamide] | 99% | 1650 nM
Cc1ccc(C(=O)NC(Nc2ccc(Cl)cc2)C(Br)(Br)Br)cc1 (stereo not drawn) | 76% | 1140 nM
O=C(NC(Nc1ccc(Cl)cc1)C(Cl)(Cl)Cl)c1ccc(Br)cn1 (single isomer, unassigned; (-)) [(−)-5-bromo-N-(2,2,2-trichloro-1-(4-chlorophenylamino)ethyl)picolinamide] | 99% | 1.4 nM
O=C(NC(Nc1ccc(Cl)cc1)C(Cl)(Cl)Cl)c1ccc(Cl)cc1 (stereo not drawn) [4-chloro-N-(2,2,2-trichloro-1-(4-chlorophenylamino)ethyl)benzamide] | 100% | 145 nM
Cc1cc(F)ccc1NC(NC(=O)c1ccco1)C(Cl)(Cl)Cl (stereo not drawn) [N-{2,2,2-trichloro-1-[(4-fluoro-2-methylphenyl)amino]ethyl}-2-furamide] | 95% | 1180 nM
O=C(NC(Nc1ccc(Cl)c(F)c1)C(Cl)(Cl)Cl)c1ccc(Br)cc1 (stereo not drawn) [4-bromo-N-[2,2,2-trichloro-1-(4-chloro-3-fluoro-phenylamino)-ethyl]-benzamide] | 95% | 110 nM
Cc1ccc(NC(NC(=O)c2ccco2)C(Cl)(Cl)Cl)cc1 (stereo not drawn) [Furan-2-carboxylic acid (2,2,2-trichloro-1-p-tolylamino-ethyl)-amide] | 100% | 454 nM
Cc1cc(NC(NC(=O)c2ccco2)C(Cl)(Cl)Cl)ccc1F (stereo not drawn) [N-{2,2,2-trichloro-1-[(4-fluoro-3-methylphenyl)amino]ethyl}-2-furamide] | 99% | 430 nM
O=C(NC(Nc1cccc(F)c1)C(Cl)(Cl)Cl)c1ccco1 (stereo not drawn) [N-{2,2,2-trichloro-1-[(3-fluorophenyl)amino]ethyl}-2-furamide] | 100% | 363 nM
Cc1cccc(C)c1NC(NC(=O)c1ccco1)C(Cl)(Cl)Cl (stereo not drawn) [N-{2,2,2-trichloro-1-[(2,6-dimethylphenyl)amino]ethyl}-2-furamide] | 41% | 1470 nM
O=C(NC(Nc1ccccc1)C(Cl)(Cl)Cl)c1ccc(Br)cc1 (stereo not drawn) | 97% | 148 nM

Structure (SMILES) | % Antagonism, human S1P3 receptor from FLIPR | IC50
O=C(NC(Nc1ccc(Cl)cc1)C(Br)(Br)Br)c1ccc(Br)cc1 (stereo not drawn) [4-bromo-N-(2,2,2-tribromo-1-(4-chlorophenylamino)ethyl)benzamide] | 100% | 98 nM
O=C(NC(Nc1ccc([N+](=O)[O-])cc1)C(Cl)(Cl)Cl)c1ccc(Cl)cc1 (stereo not drawn) | 93% | 1370 nM
O=C(NC(Nc1ccccc1C(F)(F)F)C(Cl)(Cl)Cl)c1ccco1 (stereo not drawn) | 56% | 1410 nM
Cc1ccc(NC(NC(=O)c2ccc(Br)cc2)C(Cl)(Cl)Cl)cc1 (stereo not drawn) [4-bromo-N-(2,2,2-trichloro-1-(p-tolylamino)ethyl)benzamide] | 100% | 73 nM
COc1ccc(NC(NC(=O)c2ccc(Br)cc2)C(Cl)(Cl)Cl)cc1 (stereo not drawn) | 94% | 492 nM
O=C(NC(Nc1ccc(Cl)cc1)C(Cl)(Cl)Cl)c1ccco1 (stereo not drawn) [N-{2,2,2-trichloro-1-[(4-chlorophenyl)amino]ethyl}-2-furamide] | 98% | 270 nM
O=C(NC(Nc1ccc(Cl)cc1)C(Cl)(Cl)Cl)c1ccc(F)c(F)c1 (stereo not drawn) [3,4-difluoro-N-(2,2,2-trichloro-1-(4-chlorophenylamino)ethyl)benzamide] | 95% | 256 nM
O=C(NC(Nc1ccccc1F)C(Cl)(Cl)Cl)c1ccco1 (stereo not drawn) [N-{2,2,2-trichloro-1-[(2-fluorophenyl)amino]ethyl}-2-furamide] | 98% | 1100 nM
O=C(NC(Nc1ccc(Cl)cc1)C(Cl)(Cl)Cl)c1ccc(Cl)cn1 (stereo not drawn) [5-Chloro-N-(2,2,2-trichloro-1-(4-chlorophenylamino)ethyl)picolinamide] | 98% | 6.3 nM
COc1ccc(C(=O)NC(Nc2ccc(C)cc2)C(Cl)(Cl)Cl)cc1 (stereo not drawn) | 98% | 466 nM
O=C(NC(Nc1ccc(Cl)cc1)C(Cl)(Cl)Cl)c1ccc(Br)o1 (stereo not drawn) [5-bromo-furan-2-carboxylic acid (2,2,2-trichloro-1-(4-chloro-phenylamino)-ethyl)-amide] | 95% | 711 nM
O=C(NC(Nc1ccc(Cl)cc1)C(Cl)(Cl)Cl)c1ccc(Br)nc1 (stereo not drawn) [6-bromo-N-(2,2,2-trichloro-1-(4-chlorophenylamino)ethyl)nicotinamide] | 97% | 245 nM
O=C(NC(Nc1ccc(F)cc1)C(Cl)(Cl)Cl)c1ccco1 (stereo not drawn) [N-{2,2,2-trichloro-1-[(4-fluorophenyl)amino]ethyl}-2-furamide] | 99% | 498 nM
O=C(NC(Nc1ccc(Cl)cc1)C(F)(F)F)c1ccc(Br)cn1 (stereo not drawn) [5-Bromo-N-(1-(4-chlorophenylamino)-2,2,2-trifluoroethyl)picolinamide] | 99% | 4.7 nM
O=C(NC(Nc1ccc(Cl)cc1)C(Cl)(Cl)Cl)c1ccc(Br)cn1 (stereo not drawn) [5-bromo-N-(2,2,2-trichloro-1-(4-chlorophenylamino)ethyl)picolinamide] | 99% | 2 nM
O=C(NC(Nc1ccc(Br)cc1)C(Cl)(Cl)Cl)c1ccc([N+](=O)[O-])cc1 (stereo not drawn) | 91% | 1450 nM
O=C(NC(Nc1ccc(Cl)cc1)C(Cl)(Cl)Cl)c1cc(Br)co1 (stereo not drawn) [4-bromo-N-(2,2,2-trichloro-1-(4-chlorophenylamino)ethyl)furan-2-carboxamide] | 90% | 9.5 nM
Cc1ccc(NC(NC(=O)c2ccco2)C(Cl)(Cl)Cl)c(F)c1 (stereo not drawn) [N-{2,2,2-trichloro-1-[(2-fluoro-4-methylphenyl)amino]ethyl}-2-furamide] | 102% | 1400 nM
